# Columns and labels:
# estrogen receptor (ER) = target: T1, estrogen receptor (ER) (Homo sapiens, UniProt P03372); details: reference 35; cited from earlier work
# T1 sequence (P03372 1-595): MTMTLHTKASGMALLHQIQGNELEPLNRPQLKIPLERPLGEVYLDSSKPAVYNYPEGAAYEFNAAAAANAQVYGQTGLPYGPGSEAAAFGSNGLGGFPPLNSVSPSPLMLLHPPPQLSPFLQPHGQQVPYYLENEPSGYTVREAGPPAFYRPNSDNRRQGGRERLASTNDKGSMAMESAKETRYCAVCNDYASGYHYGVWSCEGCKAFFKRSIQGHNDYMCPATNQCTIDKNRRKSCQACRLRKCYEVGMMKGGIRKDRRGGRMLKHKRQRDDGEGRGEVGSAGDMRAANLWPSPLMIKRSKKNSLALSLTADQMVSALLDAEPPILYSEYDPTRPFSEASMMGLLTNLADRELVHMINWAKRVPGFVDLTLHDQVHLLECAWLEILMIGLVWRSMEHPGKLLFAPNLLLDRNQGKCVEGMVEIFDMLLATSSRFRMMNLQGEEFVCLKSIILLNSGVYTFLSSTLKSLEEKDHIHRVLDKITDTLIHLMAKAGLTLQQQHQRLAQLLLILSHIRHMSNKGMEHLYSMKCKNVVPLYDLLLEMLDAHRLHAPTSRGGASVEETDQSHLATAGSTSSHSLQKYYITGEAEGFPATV
# [1] = system: T2, endogenous voltage-gated sodium channels expressed in murine DRG neurons; assay: Whole cell voltage clamp of endogenous sodium currents (INa) in cultured DRG sensory neurons; assay type: cell-based, mouse
# T2 construct: other: waiting for 5 minutes after removal; ND-Tam potency against DRG INa (IC50); other: DRG neurons, −60 mV holding potential; other: 3 μM ND-Tam treatment; other: DR
# Method: FIG. 1. Tamoxifen metabolites inhibit endogenous voltage-gated sodium channels expressed in murine DRG neurons. A) DIC and fluorescence images of voltage clamped DRG neuron isolated and cultured from an Nav1.8-tomato mouse. Continuity with the patched neuron is indicted by the GFP (Alexa Fluor 488 dye 1 nM) loaded into the glass patch electrode. B) Top, exemplar sodium currents (INa) recorded in control saline and two concentrations of N-desmethyl tamoxifen (ND-Tam) from a voltage-clamped DRG neuron. INa was activated by 0.2 Hz train of 50 ms depolarizations to −10 mV from −100 mV holding potential. Bottom, time course of peak INa inhibition during control conditions and after 5 minutes of extracellular ND-Tam treatment. C) Resulting drug concentration-INa inhibition relationship for ND-Tam fit to the Hill equation. Open symbols represent responses from individual cells and filled symbols represent average response per concentration. Error is equal to S.E.M. (n=11) D) A comparison of the percent INa recovery after 3-10 μM ND-Tam or 1 mM carbamazepine (CBZ) inhibition. INa recovery was assessed after 5 minutes in control saline post drug exposure. Fewer INa recovered from ND-Tam exposure compared to CBZ exposure, 14.3±5.4% and 47.2±9.6%, respectively, and was statistically significant (P=0.03). Error is equal to S.E.M. and the number of cells tested per treatment group is indicated within the parentheses.
# Previously, a unique receptor site for tamoxifen analogues within the prokaryotic sodium channel isolated form Magnetococcus marinus (NavMs)^36 (Sula et al) was crystallographically identified. Because drug occupancy of this receptor caused long lasting inhibition of the NavMs INa, the inventors wondered if these properties would translate into effects against sensory neuron Na s which transmit pain signals. Accordingly, =the potency of ND-Tam and 4OH-Tam was tested against endogenously expressed Na s in cultured DRG sensory neurons isolated from Nav1.8-tdTomato mice by conducting whole cell voltage clamp recordings (FIG. 1A, B). Sodium currents were activated by a 0.2 Hz train of −10 mV depolarizations from a holding potential of −100 mV. The externally applied drug effect was determined after three to five minutes of application of each drug concentration (FIG. 1B). […] As discussed in the introduction, total DRG INa is conducted by the Nav1.1, Nav1.6, Nav1.7, Nav1.8 and Nav1.9 subtypes. To determine if there is any specificity in the potency of tamoxifen analogues against Nav subtypes, human orthologues were heterologously expressed in cell lines (HEK and CHO co-expressing hb1 subunits), and conducted voltage-clamp experiments, as previously performed in the DRG neurons.
# Dorsal root ganglia were isolated using a modified version of the previously described protocol (PMID: 26864470). All animal procedures were approved by the Institutional Animal Care and Use Committee at the Feinberg Medical School, Northwestern University. The spinal columns of 4-6-week-old […] or Nav1.8-Tomato mice (Nav1.8-Td) were removed and DRG neurons from all spinal levels were isolated for primary culture (PMID: 33827672, PMID: 31351964). The collected DRGs, containing both neuronal and non-neuronal cells, were acutely dissociated in DMEM with collagenase IV (2 mg/mL) for 30 minutes, followed by papain (25 U/mL) for 30 minutes. The cells were then triturated, filtered through a 40 μm cell strainer to remove non-dissociated cells, and washed with DMEM. The DRGs were resuspended in 70 μL of pre-warmed growth medium (DMEM F12+Glutamax supplemented with 0.5% FBS, 0.5% penicillin/streptomycin, 1% N-2 supplement, and β-NGF ([…]) added on the day of use) and plated on poly-l-lysine (10 mg/mL) and laminin (25 μg/mL) prepared coverslips. The DRGs were incubated at 37° C. for 2-4 hours before more growth medium was added to the wells. […]
smiles,measurement,setting,value
"CC/C(=C(\c1ccccc1)c1ccc(OCCNC)cc1)c1ccccc1 [ND-Tam, 2-[4-[(Z)-1,2-diphenylbut-1-enyl]phenoxy]-N-methylethanamine]","affinity for the ER, times lower than 4OH-Tam",estrogen receptor (ER),~100 times
same,block of the total INa,[1]; 3 μM ND-Tam treatment,≈ 45%
same,change in the half-maximal activation of conductance (GV1/2),[1]; 3 μM ND-Tam treatment,No change
same,IC50,"[1]; DRG neurons, −100 mV holding potential, 0.2 Hz train of −10 mV depolarizations, read-out: half maximal potency of INa inhibition (IC50)",1700 nM
same,voltage-dependence of inactivation (V1/2) after drug treatment,"[1]; ND-Tam (3 μM), control −47.6±0.4 mV",−51.9±0.4 mV
same,half-maximal conductance-voltage relationship (V1/2),"[1]; ND-Tam conditions (3 μM), control −38.3±0.3 mV",−37.7±0.4 mV
same,shift in voltage dependence of inactivation,"[1]; after 3 μM ND-Tam treatment, P=0.01",−8 mV
same,inhibition of sodium currents recorded from DRG neurons (in words),"[1]; tamoxifen analogs and fragments, FIG. 7B",inhibited sodium currents
same,INa that did not recover after removing drug from the bath,[1]; waiting for 5 minutes after removal,86±5%
same,increase in potency when neuron membranes were held at more depolarizing potentials,"[1]; −40, −60 and −100 mV holding potentials",15-44 ×

# Reference: US20230141863A1, “Small Molecule Inhibitors Targeting the Sodium Channel Tamoxifen Receptor and Uses Thereof” (Northwestern University, priority 2021, published 2023)
